Key:
[1] = Windholz et al., 1976; cited from earlier work
[2] = solubility and dissolution of diluents in water; assay type: physicochemical; conditions: lactose compared with mannitol

| rate of dissolution [2] | Structure (SMILES) | solubility (amount of cold water needed to dissolve) [1] |
| --- | --- | --- |
|  | OC[C@@H](O)[C@@H](O)[C@H](O)[C@H](O)CO [mannitol] | 5.5 mL |
| slower rate than mannitol | OC[C@H]1O[C@@H](O[C@H]2[C@H](O)[C@@H](O)C(O)O[C@@H]2CO)[C@H](O)[C@@H](O)[C@H]1O (some centres unmarked) [lactose] |  |
